Results taken from patent publication US20250361234A1 (NICO THERAPEUTICS, INC., priority 2022, published 2025).

Biological target: T1, full-length SARM1 (FL-SARM1) (Homo sapiens, UniProt Q6SZW1)
T1 sequence (Q6SZW1 28-724): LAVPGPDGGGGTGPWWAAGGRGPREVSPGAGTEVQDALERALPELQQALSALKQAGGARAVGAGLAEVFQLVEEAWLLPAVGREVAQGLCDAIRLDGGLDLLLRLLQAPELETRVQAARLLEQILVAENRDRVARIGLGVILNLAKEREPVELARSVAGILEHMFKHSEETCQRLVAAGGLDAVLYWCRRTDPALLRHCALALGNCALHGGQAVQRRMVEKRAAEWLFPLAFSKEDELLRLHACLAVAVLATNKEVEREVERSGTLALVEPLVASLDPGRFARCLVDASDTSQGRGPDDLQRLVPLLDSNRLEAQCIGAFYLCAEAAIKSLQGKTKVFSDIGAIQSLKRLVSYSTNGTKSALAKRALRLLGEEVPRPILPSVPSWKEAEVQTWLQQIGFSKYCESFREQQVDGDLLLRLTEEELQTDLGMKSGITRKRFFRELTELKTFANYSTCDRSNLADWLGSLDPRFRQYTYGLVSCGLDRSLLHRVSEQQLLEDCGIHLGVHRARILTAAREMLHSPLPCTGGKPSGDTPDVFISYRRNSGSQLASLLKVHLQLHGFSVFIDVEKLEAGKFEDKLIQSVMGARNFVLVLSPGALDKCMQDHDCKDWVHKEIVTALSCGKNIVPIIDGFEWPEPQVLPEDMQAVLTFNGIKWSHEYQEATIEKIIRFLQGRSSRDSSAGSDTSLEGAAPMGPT
Assay: FL-SARM1 cellular lysate assay (NAD/NADH-Glo readout of remaining NAD+)
Conditions: SARM1 cellular lysate from transfected HEK293T cells, NAD+ and NMN, 11 point curve

Cc1ccc(NC(=O)[C@@H]2CC2(F)F)cc1-c1cccnc1C [Example 112, (1S)-2,2-difluoro-N-[4-methyl-3-(2-methylpyridin-3-yl)phenyl]cyclopropane-1-carboxamide]
IC50 (Activity (μM)): 33.3 µM
IC50 (Activity): > 10 µM

Cc1ccncc1-c1cc(NC(=O)N2C3CCCC2C3)ccc1C [Example 91, N-(4-methyl-3-(4-methylpyridin-3-yl)phenyl)-6-azabicyclo[3.1.1]heptane-6-carboxamide]
IC50 (Activity (μM)): 0.4 µM
IC50 (Activity): 0.0001 to 1 µM

Cc1ccc(NC(=O)N2C3CCCC2C3)cc1-c1cccnc1 [Example 86, N-(4-methyl-3-(pyridine-3-yl)phenyl)-6-azabicyclo[3.1.1]heptane-6-carboxamide]
IC50 (Activity (μM)): 0.2 µM
IC50 (Activity): 0.0001 to 1 µM

Cc1nnc([C@]23C[C@H](C)C[C@H](C2)N3C(=O)Nc2ccc(C(F)(F)F)c(-c3cncc(F)c3)c2)o1 (single isomer, unassigned) [Example 121, cis-N-(3-(5-fluoropyridin-3-yl)-4-(trifluoromethyl)phenyl)-3-methyl-1-(5-methyl-1,3,4-oxadiazol-2-yl)-6-azabicyclo[3.1.1]heptane-6-carboxamide]
IC50 (Activity (μM)): 0.034 µM
IC50 (Activity): 0.0001 to 1 µM

Cc1ccc(NC(=O)N2C3CCCC2(C#N)C3)cc1-c1cncc(F)c1 (centres unmarked) [Example 96, 1-cyano-N-[3-(5-fluoropyridin-3-yl)-4-methylphenyl]-6-azabicyclo[3.1.1]heptane-6-carboxamide]
IC50 (Activity (μM)): 0.07 µM
IC50 (Activity): 0.0001 to 1 µM

Cc1ccc(NC(=O)[C@H]2C[C@H](C3CC3(F)F)C2)cc1-c1cccnc1 (stereo partly drawn) [Example 99, trans-3-(2,2-difluorocyclopropyl)-N-(4-methyl-3-pyridin-3-ylphenyl)cyclobutane-1-carboxamide]
IC50 (Activity (μM)): 5.1 µM
IC50 (Activity): 1 to 10 µM

Cc1ccc(NC(=O)N2C3C[C@H]2C[C@H](n2cccn2)C3)cc1-c1cncc(F)c1 [Example 6, trans-N-(3-(5-fluoropyridin-3-yl)-4-methylphenyl)-3-(1H-pyrazol-1-yl)-6-azabicyclo[3.1.1]heptane-6-carboxamide]
IC50 (Activity (μM)): 6.6 µM
IC50 (Activity): 1 to 10 µM

Cc1ccc(NC(=O)N2C[C@H]3C[C@@H]2CN3c2ncccn2)cc1-c1cncc(F)c1 [Example 19, (1R,4R)-N-(3-(5-fluoropyridin-3-yl)-4-methylphenyl)-5-(pyrimidin-2-yl)-2,5-diazabicyclo[2.2.1]heptane-2-carboxamide]
IC50 (Activity (μM)): 19.8 µM
IC50 (Activity): > 10 µM

CCO[C@@H]1C[C@@H]2C[C@H](C1)N2C(=O)Nc1ccc(C)c(-c2cncc(F)c2)c1 [Example 2, cis-3-ethoxy-N-(3-(5-fluoropyridin-3-yl)-4-methylphenyl)-6-azabicyclo[3.1.1]heptane-6-carboxamide]
IC50 (Activity (μM)): 3.3 µM
IC50 (Activity): 1 to 10 µM

Cc1ccc(NC(=O)N2C3C[C@@H](C)C[C@@H]2C3)cc1-c1cncc(F)c1 (single isomer, unassigned) [Example 83, trans-N-(3-(5-fluoropyridin-3-yl)-4-methylphenyl)-3-methyl-6-azabicyclo[3.1.1]heptane-6-carboxamide]
IC50 (Activity (μM)): 0.01 µM
IC50 (Activity): 0.0001 to 1 µM

C[C@@H]1CC2C[C@@H](C1)N2C(=O)Nc1ccc(C#N)c(-c2cncc(F)c2)c1 (single isomer, unassigned) [Example 77, trans-N-(4-cyano-3-(5-fluoropyridin-3-yl)phenyl)-3-methyl-6-azabicyclo[3.1.1]heptane-6-carboxamide]
IC50 (Activity (μM)): 0.4 µM
IC50 (Activity): 0.0001 to 1 µM

Cc1ccc(NC(=O)N2C3CCCC2C3)cc1-c1ccc(C#N)nc1 [Example 60, N-[3-(6-cyanopyridin-3-yl)-4-methylphenyl]-6-azabicyclo[3.1.1]heptane-6-carboxamide]
IC50 (Activity (μM)): 8.5 µM
IC50 (Activity): 1 to 10 µM

Cc1ccc(NC(=O)N2C3C[C@H](C#N)C[C@@H]2C3)cc1-c1cncc(F)c1 [Example 49, cis-3-cyano-N-(3-(5-fluoropyridin-3-yl)-4-methylphenyl)-6-azabicyclo[3.1.1]heptane-6-carboxamide]
IC50 (Activity (μM)): 0.4 µM
IC50 (Activity): 0.0001 to 1 µM
